Experimental findings from patent US20090137686A1, “Treatment of Ophthalmic Diseases” (priority 2005, published 2009) are described below.

The assay relates to IFNγ secretion in whole blood stimulated with heat-killed Staphylococcus epidermidis. Description: in vitro whole blood assay stimulated with Staphylococcus epidermidis, measuring IFNγ. Type of assay: cell-based. To be noted: 24 hours; for inhibitory activity of IFNg secretion resulting from Staphylococcus epidermidis stimulation: IFNγ by ELISA; for IFNγ concentration: at 62.5 nMol test compound, cut from 4500 pg/ml; for inhibition of IFNγ: lowest concentration of 62.5 nMol. The text has this:
The following experimental work illustrates the invention. This involves an in vitro whole blood assay stimulated with Staphylococcus epidermidis, measuring IFNγ. IFNγ as a key mediator in pathological processes in ocular inflammatory disease, namely age-related macular degeneration (Penfold et al, 2002) and proliferative vitreoretinopathy (El-Ghrably et al, 2001). 1:100 diluted heat-killed Staphylococcus epidermidis in conjunction with various concentrations of test compound (in a stock DMSO solution) was added to a 100-fold volume of whole blood. After 24 hours, whole blood was diluted 1:4 and IFNγ was measured by enzyme-linked immuno-absorptive assay.

In the case of `CC(C(O)c1ccc(O)cc1)N1CCC(Cc2ccccc2)CC1` (racemic) [ifenprodil erythro racemate, ifenprodil], the “inhibitory activity of IFNg secretion resulting from Staphylococcus epidermidis stimulation” value is reported as “strong inhibitory activity”, the IFNγ concentration was 1500 pg/mL and the “inhibition of IFNγ” value worked out at 66%.

Consider `CC(NCCc1ccc(O)cc1)C(O)c1ccc(O)cc1` (racemic) [ritodrine racemate, ritodrine], for which the “inhibitory activity of IFNg secretion resulting from Staphylococcus epidermidis stimulation” value was “strong inhibitory activity”, the IFNγ concentration was determined as 1500 pg/mL and the “inhibition of IFNγ” value is 66%.
